# Assay results from publication PMC4747864 (Molecular cancer therapeutics, 2015).
# “Also recorded” adds a separate entry of the source. Where a SMILES comes first, the peptide text is derived from it. Bridges are numbered along the chain shown (N, C = ends). [ ]: non-standard residue; d: D form. dPen = CC(C)(S)[C@@H](N)C(=O)O; βAla = NCCC(=O)O
# Columns and labels:
# [1] = target: αvβ3 integrin (K562/αvβ3+ cells) (Homo sapiens, UniProt P05106+P06756); assay type: binding; conditions: for decrease (loss) of binding affinity / potency relative to LXW7: versus parent LXW7
# [2] = target: T1, αvβ3 integrin (αvβ3-K562 cells) (Homo sapiens, UniProt P05106+P06756); conditions: earlier study; cited from earlier work
# [3] = target: T2, αvβ5 integrin (αvβ5-K562 cells) (Homo sapiens, UniProt P06756+P18084); conditions: earlier study; cited from earlier work
# [4] = target: T3, αIIbβ3 integrin (αIIbβ3-K562 cells) (Homo sapiens, UniProt P05106+P08514); conditions: earlier study; cited from earlier work
# [5] = target: T4, α5β1 integrin (parent K562 cells) (Homo sapiens, UniProt P05556+P08648); conditions: earlier study; cited from earlier work
# [6] = test system: glioblastoma U-87MG or melanoma A375M xenograft models; conditions: in vivo and ex vivo optical imaging, U-87MG or A375M xenograft models; cited from earlier work
# [7] = target: T1, αvβ3 integrin (αvβ3-K562 cells); assay type: binding; conditions: 1μM biotinylated LXW64, then streptavidin-PE, flow cytometry
# [8] = target: T2, αvβ5 integrin (αvβ5-K562 cells); assay type: binding; conditions: 1μM biotinylated LXW64, then streptavidin-PE, flow cytometry
# [9] = target: T3, αIIbβ3 integrin (αIIbβ3-K562 cells); assay type: binding; conditions: 1μM biotinylated LXW64, then streptavidin-PE, flow cytometry
# [10] = target: T4, α5β1 integrin (parent K562 cells); assay type: binding; conditions: 1μM biotinylated LXW64, then streptavidin-PE, flow cytometry
# [11] = test system: U-87MG glioblastoma cells; test: Binding to U-87MG glioblastoma cells in vitro; assay type: cell-based
compound,measurement,setting,value
"CC(C)[C@H]1NC(=O)[C@@H](CC(=O)O)NC(=O)[C@H](CC(=O)O)NC(=O)CNC(=O)[C@H](CCCNC(=N)N)NC(=O)[C@@H](C)NC(=O)[C@H](N)CSSC[C@H](C(N)=O)NC1=O [peptide 8, caRGDdvc-NH2] (H-[dC][dA]RGD[dD][dV][dC]-NH2; disulfide 1-8 (inferred); N-terminus assumed)",decrease (loss) of binding affinity / potency relative to LXW7,[1],7.8 fold
"CC(C)[C@H]1NC(=O)[C@@H](CC(=O)O)NC(=O)[C@H](CC(=O)O)NC(=O)CNC(=O)[C@H](CCCNC(=N)N)NC(=O)CNC(=O)[C@H](N)CSSC[C@H](C(N)=O)NC1=O [peptide 1, cGRGDdvc-NH2] (H-[dC]GRGD[dD][dV][dC]-NH2; disulfide 1-8 (inferred); N-terminus assumed)",binding to αvβ3 integrin,[2],strongly
same,binding to αvβ5 integrin,[3],weakly
same,binding to αIIbβ3 integrin,[4],weakly
same,binding to α5β1 integrin,[5],no binding
same,liver uptake,[6],low liver uptake
same,tumor uptake,[6],excellent tumor uptake
"CC(C)[C@H]1NC(=O)[C@@H](CC(=O)O)NC(=O)[C@H](CC(=O)O)NC(=O)CNC(=O)[C@H](CCCNC(=N)N)NC(=O)CNC(=O)[C@H](N)C(C)(C)SSC[C@H](C(N)=O)NC1=O [peptide 5, DPen-GRGDdvc-NH2] (H-[dPen]GRGD[dD][dV][dC]-NH2; disulfide 1-8 (inferred); N-terminus assumed)",decrease (loss) of binding affinity / potency relative to LXW7,[1],4 to 10 fold
R3-cGRGDdvc-NH2 [compound 20],binding affinity compared with LXW7 (in words),[1],modest loss of potency
R4-cGRGDdvc-NH2 [compound 21],binding affinity compared with LXW7 (in words),[1],modest loss of potency
"CC(C)[C@H]1NC(=O)[C@@H](CC(=O)O)NC(=O)[C@H](CC(=O)O)NC(=O)CNC(=O)[C@H](CCCNC(=N)N)NC(=O)CNC(=O)[C@H](N)C(C)(C)SSC(C)(C)[C@H](C(N)=O)NC1=O [peptide 7, DPen-GRGDdv-DPen-NH2] (H-[dPen]GRGD[dD][dV][dPen]-NH2; disulfide 1-8 (inferred); N-terminus assumed)",decrease (loss) of binding affinity / potency relative to LXW7,[1],4 to 10 fold
"CC(C)[C@H]1NC(=O)[C@@H](CC(=O)O)NC(=O)[C@H](CC(=O)O)NC(=O)CNC(=O)[C@H](CCCNC(=N)N)NC(=O)CNC(=O)[C@@H](N)CSSC[C@H](C(N)=O)NC1=O [peptide 2, CGRGDdvc-NH2] (H-CGRGD[dD][dV][dC]-NH2; disulfide 1-8 (inferred); N-terminus assumed)",decrease (loss) of binding affinity / potency relative to LXW7,[1],10 fold
"CC(C)[C@H]1NC(=O)[C@@H](CC(=O)O)NC(=O)[C@H](CC(=O)O)NC(=O)CNC(=O)[C@H](CCCNC(=N)N)NC(=O)CCNC(=O)[C@H](N)CSSC[C@H](C(N)=O)NC1=O [peptide 9, c-βala-RGDdvc-NH2] (H-[dC][βAla]RGD[dD][dV][dC]-NH2; disulfide 1-8 (inferred); N-terminus assumed)",decrease (loss) of binding affinity / potency relative to LXW7,[1],11 fold
"CC(C)[C@H]1NC(=O)[C@@H](CC(=O)O)NC(=O)[C@H](CC(=O)O)NC(=O)CNC(=O)[C@H](CCCNC(=N)N)NC(=O)CNC(=O)[C@H](N)CSSC(C)(C)[C@H](C(N)=O)NC1=O [peptide 6, cGRGDdv-DPen-NH2] (H-[dC]GRGD[dD][dV][dPen]-NH2; disulfide 1-8 (inferred); N-terminus assumed)",decrease (loss) of binding affinity / potency relative to LXW7,[1],4 to 10 fold
"CC(C)[C@H]1NC(=O)[C@@H](CC(=O)O)NC(=O)[C@H](CC(=O)O)NC(=O)CNC(=O)[C@H](CCCNC(=N)N)NC(=O)CNC(=O)[C@@H](N)CSSC[C@@H](C(N)=O)NC1=O [peptide 4, CGRGDdvC-NH2] (H-CGRGD[dD][dV]C-NH2; disulfide 1-8 (inferred); N-terminus assumed)",binding affinity compared with LXW7 (in words),[1],complete loss of binding affinity
"N=C(N)NCCC[C@@H]1NC(=O)CNC(=O)[C@H](N)CSSC[C@H](C(N)=O)NC(=O)[C@@H](Cc2cccc3ccccc23)NC(=O)[C@@H](CC(=O)O)NC(=O)[C@H](CC(=O)O)NC(=O)CNC1=O [peptide 40, cGRGDd-DNal1-c-NH2]",higher binding affinity than LXW7,[1]; versus LXW7,6.6 fold
same,binding to αvβ3-K562 cells,[7],strongly; also recorded: significant positive binding
same,binding to αvβ5-K562 cells,[8],weakly
same,binding to αIIbβ3-K562 cells,[9],weakly
same,binding to parent K562 cells (α5β1),[10],no binding
same,binding to U-87MG glioblastoma cells,[11],binding strongly
"CC(C)[C@H]1NC(=O)[C@@H](CC(=O)O)NC(=O)[C@H](CC(=O)O)NC(=O)CNC(=O)[C@H](CCCNC(=N)N)NC(=O)CNC(=O)[C@H](N)CSSC[C@@H](C(N)=O)NC1=O [peptide 3, cGRGDdvC-NH2] (H-[dC]GRGD[dD][dV]C-NH2; disulfide 1-8 (inferred); N-terminus assumed)",decrease (loss) of binding affinity / potency relative to LXW7,[1],16 fold
